Several values for one entry are separate records, joined by “and”; a condition that tells them apart may be missing. Equal entries are not always repeated. Where two headings read alike, the source gives them in different places.

In data set [1] the target is T1, recombinant full-length human BTK kinase (Homo sapiens, UniProt Q06187).
T1 construct: recombinant full-length human BTK kinase with a (His)6 tag; (His)6; purchased Invitrogen Corporation, Carlsbad, Calif
Briefly: BTK kinase assay: ADP generation assay (ADP-Glo). Type of data set: biochemical. Conditions: 60 nM BTK, MBP substrate, 60 min. Here is the method: The primary assay for compound inhibitory activity was the ADP generation assay described herein. Test compounds were diluted to desired concentrations in kinase reaction buffer and briefly incubated with recombinant full-length human BTK kinase with a (His)6 tag (81.3 kDa; Invitrogen Corporation, Carlsbad, Calif.). The assay as described is based on volumes used in a standard 384 well format using solid, white-wall plates. The reaction was subsequently initiated by the addition of ATP and myelin basic protein (MBP) substrate (Millipore Corporation, Waltham, Mass.). Composition of the assay reaction mixture ([…]) was: 5% v/v DMSO, 60 nM BTK, 1.6 µM ATP, and 20 µM MBP substrate. After incubation at room temperature for 60 min, […] (Promega Corporation, Madison, Wis.) was added to each well and incubated for an additional 40 minutes. The reagent stopped the kinase reaction and depleted the unconsumed ATP. Kinase Detection reagent ([…]; Promega Corporation) was then added to each well. The Kinase Detection reagent comprises reagents to convert ADP to ATP and provide luciferase and luciferin to detect ATP. Luminescence was measured on an EnVision microplate reader (PerkinElmer). The amount of luminescence from each reaction is directly correlated with BTK kinase activity. Percent inhibition and IC50 values were calculated by comparing enzyme activity in drug-treated wells to the appropriate controls.
IC50 values are determined using GraphPad Prism 5 software. The data were entered as an X-Y plot into the software as percent inhibition for each concentration of the drug. The concentration values of the drug were log transformed and the nonlinear regression was carried out using the “sigmoidal dose-response (variable slope)” option within the GraphPad software to model the data and calculate IC50 values. The IC50 values reported are the concentration of drug at which 50% inhibition was reached.
Activity (IC50) was determined in the BTK assays describe herein below, i.e. either the ADP generation assay and/or the time-resolved FRET assay, and the data are shown in Table III. The compound number corresponds to the compound numbers used in Table I. In the table below, “ADP Assay” refers to the assay which measures production of ADP resulting from use of ATP by the kinase; and “HTRF Assay” refers to the time resolved-FRET kinase assay described in the examples. Multiple values in a given column indicate the results of more than one assay for the given compound. Representative data of the type used to determine the IC50 values for the ADP assay in Table III are shown in FIG. 8 for compounds 3, 4, and 5.

A short description of data set [2]: Caco-2 bidirectional permeability assay. Type of data set: in vitro ADME. Conditions: human. Here is the method: (§1) Cell membrane permeability is an important drug characteristic. Typically, a drug candidate is test in a Caco-2 cell transmembrane permeability assay. Compound 3 was tested in a bidirectional permeability assay, and the results are shown in Table V. The data are consistent with the representative compound having good cellular membrane permeability, and the efflux ratio is consistent with active efflux of the drug from cell. The study was conducted using standard techniques known in the art.

In another data set the test system is Caco-2 cell. Briefly: Caco-2 bidirectional permeability assay. Type of data set: in vitro ADME. Conditions: Caco-2. Here is the method: as §1
The next data set has as its target T2, JAK3 (Homo sapiens, UniProt P52333).
T2 sequence (P52333 1-1124): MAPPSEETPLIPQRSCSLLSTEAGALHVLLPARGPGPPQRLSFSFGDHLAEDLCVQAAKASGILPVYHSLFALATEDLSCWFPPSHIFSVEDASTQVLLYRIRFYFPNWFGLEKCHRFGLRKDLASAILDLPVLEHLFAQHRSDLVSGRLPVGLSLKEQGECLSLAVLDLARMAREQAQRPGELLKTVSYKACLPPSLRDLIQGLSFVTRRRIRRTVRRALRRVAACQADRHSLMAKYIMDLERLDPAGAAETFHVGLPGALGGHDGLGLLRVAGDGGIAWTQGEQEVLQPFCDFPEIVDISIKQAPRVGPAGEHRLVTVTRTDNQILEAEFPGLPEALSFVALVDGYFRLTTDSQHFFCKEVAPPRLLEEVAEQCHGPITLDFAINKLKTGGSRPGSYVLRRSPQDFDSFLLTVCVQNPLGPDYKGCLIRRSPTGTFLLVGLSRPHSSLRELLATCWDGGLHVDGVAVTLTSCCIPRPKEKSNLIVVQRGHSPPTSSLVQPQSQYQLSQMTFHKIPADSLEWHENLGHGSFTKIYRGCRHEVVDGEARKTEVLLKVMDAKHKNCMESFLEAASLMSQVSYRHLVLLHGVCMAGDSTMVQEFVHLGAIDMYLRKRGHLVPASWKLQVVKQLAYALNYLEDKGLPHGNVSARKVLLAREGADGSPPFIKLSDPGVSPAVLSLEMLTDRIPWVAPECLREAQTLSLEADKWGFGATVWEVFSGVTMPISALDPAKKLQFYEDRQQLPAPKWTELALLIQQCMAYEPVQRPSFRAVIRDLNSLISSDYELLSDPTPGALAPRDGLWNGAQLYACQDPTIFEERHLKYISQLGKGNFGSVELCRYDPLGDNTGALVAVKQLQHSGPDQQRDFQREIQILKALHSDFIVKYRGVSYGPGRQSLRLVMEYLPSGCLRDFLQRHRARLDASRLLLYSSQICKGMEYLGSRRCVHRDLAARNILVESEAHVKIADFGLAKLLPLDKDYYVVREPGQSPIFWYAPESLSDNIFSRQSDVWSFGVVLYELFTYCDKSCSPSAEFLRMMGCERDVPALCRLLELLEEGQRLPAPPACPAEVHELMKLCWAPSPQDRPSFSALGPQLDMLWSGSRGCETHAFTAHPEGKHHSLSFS
Briefly: Specific kinase IC50 assay. Type of data set: biochemical. Conditions: 1 μM ATP, 10-dose, duplicate. As for the experimental part:
The assays were carried out in the presence of 1 μM ATP and were conducted in a 10-dose format in duplicate with three-fold serial dilutions starting at 10 μM.

T1 sequence (Q06187 whole entry): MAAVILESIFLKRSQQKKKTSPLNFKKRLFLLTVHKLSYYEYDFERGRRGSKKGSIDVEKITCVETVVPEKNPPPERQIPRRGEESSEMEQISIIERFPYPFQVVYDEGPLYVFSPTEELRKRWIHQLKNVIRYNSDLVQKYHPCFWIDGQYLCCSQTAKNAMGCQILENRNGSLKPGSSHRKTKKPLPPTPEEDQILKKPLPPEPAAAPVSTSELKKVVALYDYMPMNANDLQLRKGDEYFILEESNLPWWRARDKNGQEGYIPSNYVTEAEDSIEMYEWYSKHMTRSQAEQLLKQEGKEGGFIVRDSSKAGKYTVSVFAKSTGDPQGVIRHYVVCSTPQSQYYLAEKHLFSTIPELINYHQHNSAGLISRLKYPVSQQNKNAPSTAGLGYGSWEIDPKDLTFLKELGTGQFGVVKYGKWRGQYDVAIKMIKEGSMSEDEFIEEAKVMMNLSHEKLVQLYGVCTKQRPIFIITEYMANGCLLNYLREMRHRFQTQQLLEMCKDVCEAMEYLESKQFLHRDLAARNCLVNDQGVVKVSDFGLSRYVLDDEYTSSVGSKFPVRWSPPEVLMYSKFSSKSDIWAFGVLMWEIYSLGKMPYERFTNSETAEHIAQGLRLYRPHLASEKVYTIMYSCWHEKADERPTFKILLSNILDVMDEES

For `C=CC(=O)Nc1cccc(-c2nc(Nc3cccc(N4CCOCC4)c3)nc3[nH]ncc23)c1` [Compound 3, N-(3-(6-((3-morpholinophenyl)amino)-1H-pyrazolo[3,4-d]pyrimidin-4-yl)phenyl)acrylamide], the IC50 is 5 nM and 6 nM and 8 nM in data set [1]; 66.6 nM against JAK3. The efflux ratio in data set [2] (Caco-2) was found to be 6. For the same compound, the recovery in data set [2] (Caco-2, Caco-2, A-B, read-out: % Recovery A-B) was determined as 41%; in data set [2] (Caco-2, Caco-2, B-A, read-out: % Recovery B-A) it was 84%. The compound further had a Papp A→B in data set [2] (Caco-2, A-B) of 5.81 ×10⁻⁶ cm/s. Further, in data set [2] (Caco-2, B-A), the Papp B→A turned out to be 34.9 ×10⁻⁶ cm/s. Moreover, the “Permeability Classification” value in the data set on Caco-2 cell is “High”. Further, the “Significant Efflux” value with Caco-2 cell was “Yes”.
